The values below come from the RepoRT retention time repository (doi:10.1021/es4044374).

The nature of the data set: RP, Waters XBridge C18, 50 × 2.1 mm, 3.5 µm, 30 °C, 0.2 mL/min, estimated dead time 0.55 min; A: water + 0.1% formic acid, pH 3; B: methanol + 0.1% formic acid, pH 3; gradient (min/%B) 0/10 4/50 17/95 25/95 25.1/10 30/10. The settings on record: stereoisomer not certain.
With `N#CCNC(=O)c1cnccc1C(F)(F)F` [Flonicamid], the LC retention time was 3.9 min. With `CC(Oc1ccc(Oc2ccc(C(F)(F)F)cn2)cc1)C(=O)O` (configuration not stated) [Fluazifop] the figure was 10.9 min; with `O=[N+]([O-])c1cc(C(F)(F)F)c(Cl)c([N+](=O)[O-])c1Nc1ncc(C(F)(F)F)cc1Cl` [Fluazinam], 15.9 min; with `OC(Cn1cncn1)(Cn1cncn1)c1ccc(F)cc1F` [Fluconazole], 5.3 min. As for `N#Cc1c[nH]cc1-c1cccc2c1OC(F)(F)O2` [Fludioxonil], the LC retention time was 10.7 min. Under `CC(C)N(C(=O)CS(=O)(=O)O)c1ccc(F)cc1` [Flufenacet ESA] stands 6 min. Turning to `CC(C)N(C(=O)C(=O)O)c1ccc(F)cc1` [Flufenacet OXA], the LC retention time was 6.2 min. With `CC(C)N(C(=O)COc1nnc(C(F)(F)F)s1)c1ccc(F)cc1` [Flufenacet] the figure was 11.7 min. Under `O=C(O)c1ccccc1Nc1cccc(C(F)(F)F)c1` [Flufenamic acid] stands 14.6 min. For the molecule `CNCCC(Oc1ccc(C(F)(F)F)cc1)c1ccccc1` (configuration not stated) [Fluoxetine], the LC retention time is 9.2 min. `Nc1c(Cl)c(F)nc(OCC(=O)O)c1Cl` [Fluroxypyr]: the LC retention time is 6.9 min. With `C[Si](Cn1cncn1)(c1ccc(F)cc1)c1ccc(F)cc1` [Flusilazole] the figure was 12.4 min; with `COc1cc(OC)nc(NC(=O)NS(=O)(=O)c2cc(NC=O)ccc2C(=O)N(C)C)n1` [Foramsulfuron], 7.8 min. With `NS(=O)(=O)c1cc(C(=O)O)c(NCc2ccco2)cc1Cl` [Furosemide] the figure was 6.8 min; with `NCC1(CC(=O)O)CCCCC1` [Gabapentin], 3.6 min. With `CC1COC(=O)c2cc3c(cc21)C(C)(C)C(C)C3(C)C` (configuration not stated) [Galaxolidone] the figure was 14.7 min. Take `Nc1ccn(C2OC(CO)C(O)C2(F)F)c(=O)n1` (configuration not stated) [Gemcitabine]: the LC retention time is 1 min. Turning to `NS(=O)(=O)c1cc2c(cc1Cl)NCNS2(=O)=O` [Hydrochlorothiazide], the LC retention time is 2.2 min. Regarding `CC(C)Cc1ccc(C(C)C(=O)O)cc1` (configuration not stated) [Ibuprofen], the LC retention time is 13.6 min. On to `O=P1(NCCCl)OCCCN1CCCl` (configuration not stated) [Ifosfamide], for which the LC retention time was 6.3 min. As to `COCc1cnc(C2=NC(C)(C(C)C)C(=O)N2)c(C(=O)O)c1` (configuration not stated) [Imazamox], the LC retention time is 5.7 min. For the molecule `O=C1NCCN1Cc1ccc(Cl)nc1` [Imidacloprid-urea], the LC retention time was 4.6 min. With `O=[N+]([O-])/N=C1\NCCN1Cc1ccc(Cl)nc1` [Imidacloprid], the LC retention time was 4.8 min. Regarding `C1=Cc2ccccc2Nc2ccccc21` [Iminostilbene], the LC retention time is 11 min.

As to `COc1ccc2c(c1)c(CC(=O)O)c(C)n2C(=O)c1ccc(Cl)cc1` [Indomethacin], the LC retention time was 12.9 min.

Regarding `CN(CC(O)CO)C(=O)c1c(I)c(NC(=O)C(CO)CO)c(I)c(C(=O)N(C)CC(O)CO)c1I` (configuration not stated) [Iobitridol], the LC retention time was 1.6 min. For `CCCCNC(=O)OCC#CI` [Iodocarb], the LC retention time is 8.4 min. Under `CC(=O)N(CC(O)CO)c1c(I)c(C(=O)NCC(O)CO)c(I)c(C(=O)NCC(O)CO)c1I` (configuration not stated) [Iohexol] stands 1.6 min.

With `CN(C(=O)CO)c1c(I)c(C(=O)NCC(O)CO)c(I)c(C(=O)NCC(O)CO)c1I` (configuration not stated) [Iomeprol], the LC retention time was 1.6 min. With `CC(O)C(=O)Nc1c(I)c(C(=O)NC(CO)CO)c(I)c(C(=O)NC(CO)CO)c1I` (configuration not stated) [Iopamidol] the figure was 1.2 min; with `COCC(=O)Nc1c(I)c(C(=O)NCC(O)CO)c(I)c(C(=O)N(C)CC(O)CO)c1I` (configuration not stated) [Iopromide], 2.7 min; with `CC(=O)Nc1c(I)c(C(=O)O)c(I)c(C(=O)NCCO)c1I` [Ioxitalamic acid], 1.3 min.

Regarding `N#Cc1cc(I)c(O)c(I)c1` [Ioxynil], the LC retention time is 9.3 min. With `Cc1ccc(C(C)NC(=O)C(NC(=O)OC(C)C)C(C)C)cc1` (configuration not stated) [Iprovalicarb] the figure was 11.4 min. Consider `CCCCC1=NC2(CCCC2)C(=O)N1Cc1ccc(-c2ccccc2-c2nn[nH]n2)cc1` [Irbesartan], for which the LC retention time is 9.2 min. Under `CSc1nc(N)nc(NC(C)(C)C)n1` [Irgarol-descyclopropyl] stands 6.7 min; under `CSc1nc(NC2CC2)nc(NC(C)(C)C)n1` [Irgarol], 9.2 min. With `CC(C)c1ccc(NC(N)=O)cc1` [Isoproturon-didemethyl] the figure was 8 min; with `CNC(=O)Nc1ccc(C(C)C)cc1` [Isoproturon-monodemethyl], 8.6 min. With `CC(C)c1ccc(NC(=O)N(C)C)cc1` [Isoproturon], the LC retention time was 8.7 min. As for `CNC1(c2ccccc2Cl)CCCCC1=O` (configuration not stated) [Ketamine], the LC retention time is 4.6 min. Under `CC(C(=O)O)c1cccc(C(=O)c2ccccc2)c1` (configuration not stated) [Ketoprofen] stands 9.6 min; under `CON=C(C(=O)OC)c1ccccc1COc1ccccc1C` [Kresoxim-methyl], 12.5 min; under `Nc1nnc(-c2cccc(Cl)c2Cl)c(N)n1` [Lamotrigine], 5.4 min. With `O=c1[nH]c2c(c(=O)n1C1CCCCC1)CCC2` [Lenacil] the figure was 8.6 min; with `c1ccc(C2CN3CCSC3=N2)cc1` (configuration not stated) [Levamisole], 2.9 min; with `CCC(C(N)=O)N1CCCC1=O` (configuration not stated) [Levetiracetam], 3 min. With `CCN(CC)CC(=O)Nc1c(C)cccc1C` [Lidocaine] the figure was 4.2 min; with `CON(C)C(=O)Nc1ccc(Cl)c(Cl)c1` [Linuron], 10 min; with `Cc1cc(Cl)ccc1OCC(=O)O` [MCPA], 9.5 min. In the case of `Cc1cc(Cl)ccc1OCCCC(=O)O` [MCPB], the LC retention time was 11.9 min. Turning to `Cc1cc(Cl)ccc1OC(C)C(=O)O` (configuration not stated) [Mecoprop], the LC retention time was 10.8 min. Under `Cc1cccc(Nc2ccccc2C(=O)O)c1C` [Mefenamic acid] stands 14.5 min; under `CNC(C)C(=O)c1ccc(C)cc1` (configuration not stated) [Mephedrone], 4.3 min. Under `CS(=O)(=O)c1ccc(C(=O)C2C(=O)CCCC2=O)c([N+](=O)[O-])c1` [Mesotrione] stands 6.2 min. Consider `COCC(=O)N(c1c(C)cccc1C)C(C)C(=O)OC` (configuration not stated) [Metalaxyl], for which the LC retention time is 8.7 min. Under `Cc1nnc(-c2ccccc2)c(=O)[nH]1` [Metamitron-desamino] stands 5.1 min; under `Cc1nnc(-c2ccccc2)c(=O)n1N` [Metamitron], 4.9 min. Consider `Cc1cccc(C)c1N(Cn1cccn1)C(=O)CS(=O)(=O)O` [Metazachlor ESA], for which the LC retention time was 5.5 min. With `Cc1cccc(C)c1N(Cn1cccn1)C(=O)C(=O)O` [Metazachlor OXA] the figure was 5.5 min; with `Cc1cccc(C)c1N(Cn1cccn1)C(=O)CCl` [Metazachlor], 8.5 min. Under `CN(C)C(=N)N=C(N)N` [Metformin] stands 0.8 min; under `CCC(=O)C(CC(C)N(C)C)(c1ccccc1)c1ccccc1` (configuration not stated) [Methadone], 8.4 min; under `CNC(C)Cc1ccccc1` (configuration not stated) [Methamphetamine], 3.7 min.

Turning to `CNC(=O)Oc1cc(C)c(S(C)=O)c(C)c1` (configuration not stated) [Methiocarb-sulfoxide], the LC retention time is 4.9 min. Under `CNC(=O)Oc1cc(C)c(SC)c(C)c1` [Methiocarb] stands 10.4 min; under `CNC(=O)ON=C(C)SC` [Methomyl], 3.6 min. With `COc1cccc(C(=O)NN(C(=O)c2cc(C)cc(C)c2)C(C)(C)C)c1C` [Methoxyfenozide], the LC retention time was 10.9 min. Under `CC1CC2C(C(O)CC3(C)C2CCC3(O)C(=O)CO)C2(C)C=CC(=O)C=C12` (configuration not stated) [Methylprednisolone] stands 9.2 min; under `CCN(CC)CCNC(=O)c1cc(Cl)c(N)cc1OC` [Metoclopramide], 4.3 min. Turning to `CCc1cccc(C)c1N(C(=O)CS(=O)(=O)O)C(C)COC` (configuration not stated) [Metolachlor ESA], the LC retention time is 7.8 min. For the molecule `CCc1cccc(C)c1N(C(=O)C(=O)O)C(C)COC` (configuration not stated) [Metolachlor OXA], the LC retention time was 9.3 min.

Take `CCc1cccc(C)c1N1C(=O)COCC1C` (configuration not stated) [Metolachlor morpholinone]: the LC retention time is 8.2 min. As for `CCc1cccc(C)c1N(C(=O)CCl)C(C)COC` (configuration not stated) [Metolachlor], the LC retention time is 11.8 min. With `COCCc1ccc(OCC(O)CNC(C)C)cc1` (configuration not stated) [Metoprolol] the figure was 5.1 min; with `CC(C)(C)c1n[nH]c(=O)n(N)c1=O` [Metribuzin-diketo], 5.9 min; with `CSc1nnc(C(C)(C)C)c(=O)n1N` [Metribuzin], 6.9 min.

`Cc1ncc([N+](=O)[O-])n1CCO` [Metronidazole]: the LC retention time is 2.1 min. With `COC(=O)c1ccccc1S(=O)(=O)NC(=O)Nc1nc(C)nc(OC)n1` [Metsulfuron-methyl] the figure was 7.1 min; with `C=C1C(=O)NC(C)C(=O)NC(CC(C)C)C(=O)NC(C(=O)O)C(C)C(=O)NC(CCCN=C(N)N)C(=O)NC(C=CC(C)=CC(C)C(Cc2ccccc2)OC)C(C)C(=O)NC(C(=O)O)CCC(=O)N1C` (configuration not stated) [Microcystin-LR], 10.2 min. For the molecule `O=C(NCCN1CCOCC1)c1ccc(Cl)cc1` [Moclobemide], the LC retention time was 4.5 min. As for `CN(C)C(=O)Nc1ccc(Cl)cc1` [Monuron], the LC retention time is 6.7 min.
